Key:
Assay in all cases: relative viability (nuclei count vs DMSO), 5 days (fraction); higher = more cells survive
Doramapimod + Foretinib = compound: Cc1ccc(-n2nc(C(C)(C)C)cc2NC(=O)Nc2ccc(OCCN3CCOCC3)c3ccccc23)cc1 [Doramapimod] + COc1cc2c(Oc3ccc(NC(=O)C4(C(=O)Nc5ccc(F)cc5)CC4)cc3F)ccnc2cc1OCCCN1CCOCC1 [Foretinib] (partner 0.25 µM)
Method in brief: (§1)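 The day after seeding in 1536-well plates, lung cancer cell lines were treated by pin tool with a single drug, or with a fixed anchor-drug dose together with five library-drug doses (not always all listed) in √10 steps. After 5 days, a combined fix-and-stain solution (final 0.05% Triton X-100, 1% formaldehyde, 1 ug/ml Hoechst) was added. Nuclei counted on 4× images gave relative viability as treated counts over vehicle counts, reported as the median of duplicate plates.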

IPA-3 + Decitabine = compound: C1=CC=C2C(=C1)C=CC(=C2SSC3=C(C=CC4=CC=CC=C43)O)O [IPA-3] + Nc1ncn([C@H]2C[C@H](O)[C@@H](CO)O2)c(=O)n1 [Decitabine] (partner 2 µM)
Method in brief: as §1

Doramapimod + Bortezomib = compound: Cc1ccc(-n2nc(C(C)(C)C)cc2NC(=O)Nc2ccc(OCCN3CCOCC3)c3ccccc23)cc1 [Doramapimod] + CC(C)C[C@H](NC(=O)[C@H](Cc1ccccc1)NC(=O)c1cnccn1)B(O)O [Bortezomib] (partner 0.002 µM)
Method in brief: as §1

Cell Line | relative viability (Doramapimod + Foretinib; first compound 0.02 µM) | relative viability (Doramapimod + Foretinib; first compound 0.06325 µM) | relative viability (Doramapimod + Foretinib; first compound 0.2 µM) | relative viability (Doramapimod + Foretinib; first compound 2 µM) | relative viability (IPA-3 + Decitabine; first compound 0.2 µM) | relative viability (IPA-3 + Decitabine; first compound 0.6325 µM) | relative viability (IPA-3 + Decitabine; first compound 2 µM) | relative viability (IPA-3 + Decitabine; first compound 6.325 µM) | relative viability (IPA-3 + Decitabine; first compound 20 µM) | relative viability (Doramapimod + Bortezomib; first compound 0.02 µM) | relative viability (Doramapimod + Bortezomib; first compound 0.2 µM) | relative viability (Doramapimod + Bortezomib; first compound 0.6325 µM) | relative viability (Doramapimod + Bortezomib; first compound 2 µM) | relative viability (Doramapimod + Foretinib; first compound 0.6325 µM) | relative viability (Doramapimod + Bortezomib; first compound 0.06325 µM)
NCI-H441 | 1.02 | 0.654 | 0.909 | 0.842 | 0.268 | 0.257 | 0.205 | 0.234 | 0.21 | 0.308 | 0.522 | 0.362 | 0.266 |  | 
NCI-H647 | 0.903 | 1.07 | 1.25 | 1.16 | 0.502 | 0.396 | 0.397 | 0.206 | 0.134 | 1.13 | 0.912 | 1.05 | 0.861 | 1.29 | 0.985
NCI-H1915 | 1.02 | 1.13 | 1.18 | 0.995 | 0.277 | 0.279 | 0.248 | 0.262 | 0.245 | 0.978 | 1.04 | 1.02 | 0.936 | 1.12 | 1.09
NCI-H1734 | 0.808 | 0.805 | 0.802 | 0.598 | 0.59 | 0.457 | 0.469 | 0.44 | 0.436 | 0.845 | 0.766 | 0.966 | 0.724 | 0.767 | 0.859
NCI-H1993 | 0.844 | 0.759 | 0.808 | 0.68 | 0.611 | 0.576 | 0.643 | 0.547 | 0.615 | 1.3 | 1.03 | 1.53 | 0.97 | 0.778 | 0.993
HCC-78 | 0.542 | 0.575 | 0.54 | 0.539 | 0.74 | 0.665 | 0.618 | 0.548 | 0.649 | 0.334 | 0.432 | 0.642 | 0.457 | 0.545 | 0.49
NCI-H2405 | 1.11 | 1.01 | 1.04 | 0.998 | 0.797 | 0.737 | 0.723 | 0.721 | 0.746 | 0.98 | 0.984 | 0.712 | 0.961 | 1.14 | 1.03
HOP-62 | 1.15 | 1.05 | 1.11 | 1.08 | 0.193 | 0.213 | 0.231 | 0.229 | 0.235 | 0.594 | 1.15 | 0.468 | 0.703 | 1.14 | 0.97
NCI-H650 | 1.07 | 1.12 | 1.18 | 1.03 | 0.297 | 0.33 | 0.292 | 0.294 | 0.348 | 0.882 | 1.03 | 0.737 | 0.874 | 1.08 | 1.11
BEN | 0.663 | 0.639 | 0.603 | 0.676 | 0.612 | 0.824 | 0.758 | 0.712 | 0.665 | 0.69 | 0.896 | 0.52 | 0.684 | 0.469 | 0.785
SW 1573 | 0.862 | 0.769 | 0.749 | 0.663 | 0.7 | 0.452 | 0.485 | 0.56 | 0.121 | 0.944 | 0.813 | 0.764 | 0.875 | 0.836 | 0.927
ChaGo-K-1 | 0.922 | 0.907 | 0.892 | 0.831 | 0.536 | 0.479 | 0.503 | 0.509 | 0.487 | 1.04 | 1.29 |  | 0.646 | 0.949 | 1.29
NCI-H1755 | 0.984 | 0.928 | 0.93 | 0.866 | 0.752 | 0.69 | 0.651 | 0.699 | 0.716 | 1.03 | 0.793 | 0.897 | 0.831 | 0.892 | 1
NCI-H2023 | 0.833 | 0.732 | 0.691 | 0.605 | 0.233 | 0.225 | 0.209 | 0.216 | 0.2 | 1 | 0.978 | 0.44 | 0.97 | 0.823 | 0.945
LC-2-ad | 0.927 | 0.882 | 0.865 | 0.807 | 0.788 | 0.822 | 0.82 | 0.84 | 0.788 | 0.985 | 1.06 | 1.14 | 0.94 | 0.559 | 1.12
NCI-H1666 | 0.948 | 1.05 | 1.02 | 0.971 | 0.661 | 0.759 | 0.737 | 0.868 | 0.706 | 0.83 | 0.826 | 0.842 | 0.725 | 1.08 | 0.784
201T | 1.01 | 1.03 | 1.1 | 0.974 | 0.888 | 0.861 | 0.839 | 0.868 | 0.947 | 1.16 | 1.09 | 1.29 | 1.16 | 1.41 | 1.16
NCI-H2009 | 1.21 | 1.25 | 1.21 | 1.2 | 0.38 | 0.353 | 0.444 | 0.395 | 0.312 | 1.08 | 1.18 | 0.246 | 0.962 | 1.36 | 1.06
LU99A | 0.791 | 0.781 | 0.914 | 0.724 | 0.974 | 0.813 | 0.881 | 0.867 | 0.879 | 1.03 | 1.12 | 1.15 | 0.922 | 0.801 | 1.15
NCI-H1437 | 1.37 | 1.39 | 1.35 | 1.2 | 0.601 | 0.515 | 0.543 | 0.596 | 0.581 | 0.586 | 0.551 | 0.464 | 0.495 | 1.38 | 0.643
EKVX | 0.831 | 0.829 | 0.789 | 0.764 | 0.342 | 0.396 | 0.26 | 0.297 | 0.332 | 1.04 | 1.08 | 0.967 | 1.11 | 0.746 | 0.997
ABC-1 | 1.39 | 1.11 | 1.05 | 0.881 | 1.35 | 1.02 | 1.33 | 0.99 | 1.26 | 0.297 | 0.262 | 0.345 | 0.296 | 0.919 | 0.302
NCI-H520 | 0.63 | 0.864 | 0.656 | 0.498 | 0.528 | 0.523 |  | 0.413 | 0.453 | 0.671 | 0.529 | 0.677 | 0.364 | 0.674 | 0.699
LCLC-97TM1 | 0.842 | 1.02 | 0.895 | 0.819 | 0.242 | 0.216 | 0.211 | 0.196 | 0.235 | 0.587 | 0.905 | 0.378 | 0.521 | 0.94 | 1.27
NCI-H3122 | 0.921 | 0.911 | 0.922 | 0.993 | 0.517 | 0.467 | 0.362 | 0.459 | 0.474 | 1.04 | 0.949 | 1.07 | 0.91 | 0.963 | 0.983
PC-14 | 0.939 | 1.03 | 0.997 | 0.91 | 0.29 | 0.152 | 0.226 | 0.187 | 0.144 | 0.968 | 0.778 | 1.01 | 0.81 | 1.13 | 0.845
EPLC-272H | 0.776 | 0.658 | 0.788 | 0.57 | 0.406 | 0.397 | 0.325 | 0.38 | 0.397 | 0.873 | 0.848 | 0.881 | 0.655 | 0.934 | 0.779
A-427 | 1.02 | 1.15 | 1.12 | 0.997 | 0.571 | 0.576 | 0.547 | 0.544 | 0.63 | 0.907 | 1 |  | 1.12 |  | 1.05

From the supplement of paper PMC10307832
